Results: BindingDB's records for doi:10.1016/j.bmcl.2010.08.063 (Merck Research Laboratories, 2010)

Assay: Positive modulation of GluR1

Row | SMILES | EC50
1 | O=C(Cn1nc(C(F)(F)F)c2c1CCCC2)Nc1sc2c(c1C(=O)N[C@@H]1CCNC1)CCCC2 | 251 nM
2 | O=C(Cn1nc(C(F)(F)F)c2c1CCCC2)Nc1sc2c(c1CO)CCCC2 | 251 nM
3 | NCc1cn(CC(=O)Nc2sc3c(c2C(N)=O)CCCC3)nc1C(F)(F)F | 794 nM
4 | CNCc1cn(CC(=O)Nc2sc3c(c2C(N)=O)CCCC3)nc1C(F)(F)F | 126 nM
5 | CCNCc1cn(CC(=O)Nc2sc3c(c2C(N)=O)CCCC3)nc1C(F)(F)F | 794 nM
6 | CN(C)Cc1cn(CC(=O)Nc2sc3c(c2C(N)=O)CCCC3)nc1C(F)(F)F | 501 nM
7 | CC(C)NCc1cn(CC(=O)Nc2sc3c(c2C(N)=O)CCCC3)nc1C(F)(F)F | 3160 nM
8 | COCCNCc1cn(CC(=O)Nc2sc3c(c2C(N)=O)CCCC3)nc1C(F)(F)F | 1580 nM
9 | CCN(CC)Cc1cn(CC(=O)Nc2sc3c(c2C(N)=O)CCCC3)nc1C(F)(F)F | 631 nM
10 | NC(=O)c1c(NC(=O)Cn2cc(CNC3CC3)c(C(F)(F)F)n2)sc2c1CCCC2 | 631 nM
11 | NC(=O)c1c(NC(=O)Cn2cc(CN3CCC3)c(C(F)(F)F)n2)sc2c1CCCC2 | 1000 nM
12 | CNCc1cn(CC(=O)Nc2sc3c(c2C(N)=O)CCCC3)nc1C(C)(C)C | 316 nM
13 | CN(C)Cc1cn(CC(=O)Nc2sc3c(c2C(N)=O)CCCC3)nc1C(C)(C)C | 316 nM
14 | CC(C)(C)c1nn(CC(=O)Nc2sc3c(c2C(N)=O)CCCC3)cc1CNC1CC1 | 1580 nM
15 | CCNCc1cn(CC(=O)Nc2sc3c(c2C(N)=O)CCCC3)nc1C(C)(C)C | 794 nM
16 | CC(C)NCc1cn(CC(=O)Nc2sc3c(c2C(N)=O)CCCC3)nc1C(C)(C)C | 1580 nM
17 | CNCc1cn(CCC(=O)Nc2sc3c(c2C(N)=O)CCCC3)nc1C(F)(F)F | 1580 nM
18 | CCNCc1cn(CCC(=O)Nc2sc3c(c2C(N)=O)CCCC3)nc1C(F)(F)F | 2510 nM
19 | CCN(CC)Cc1cn(CCC(=O)Nc2sc3c(c2C(N)=O)CCCC3)nc1C(F)(F)F | 2000 nM
20 | NC(=O)c1c(NC(=O)Cn2nc(C(F)(F)F)c3c2CCNC3)sc2c1CCCC2 | 1000 nM
21 | CNCc1cn(CC(=O)Nc2sc3c(c2C(=O)NC)CCCC3)nc1C(F)(F)F | 1580 nM
